Results reported in PubChem BioAssay AID1963852 (Molecular Pharmacology Branch, DTP, NCI, 2024).

Test system: 282377-053-R-J1-PDC complex spheroid viability
Assay: Anticancer human tumor 282377-053-R-J1-PDC patient-derived colon adenocarcinoma cell line growth inhibition [POLQ]
Details: for IC50: curve of first compound; for viability, T/C: stronger effect = lower value
In short: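 Patient-derived tumour cells were co-cultured with HUVEC and mesenchymal stem cells as multicellular spheroids at 37 °C. They were treated with POLQ inhibitors (novobiocin, ART-558, RP6685) alone or combined with other agents. Top concentrations were at or near clinical Cmax (otherwise 10 microM; SN-38 at 1 microM), decreasing in half-log steps.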

[1] = second compound 0.0316 µM, first compound 0.0316 µM
[2] = second compound 0.0316 µM, first compound 0.1 µM
[3] = second compound 0.0316 µM, first compound 0.316 µM
[4] = second compound 0.0316 µM, first compound 1 µM
[5] = second compound 0.0316 µM, first compound 3.16 µM
[6] = second compound 0.0316 µM, first compound 10 µM
[7] = second compound 0.1 µM, first compound 0.0316 µM
[8] = second compound 0.1 µM, first compound 0.1 µM
[9] = second compound 0.1 µM, first compound 0.316 µM
[10] = second compound 0.1 µM, first compound 1 µM
[11] = second compound 0.1 µM, first compound 3.16 µM
[12] = second compound 0.1 µM, first compound 10 µM
[13] = second compound 0.316 µM, first compound 0.0316 µM
[14] = second compound 0.316 µM, first compound 0.1 µM
[15] = second compound 0.316 µM, first compound 0.316 µM
[16] = second compound 0.316 µM, first compound 1 µM
[17] = second compound 0.316 µM, first compound 3.16 µM
[18] = second compound 0.316 µM, first compound 10 µM
[19] = second compound 1 µM, first compound 0.0316 µM
[20] = second compound 1 µM, first compound 0.1 µM
[21] = second compound 1 µM, first compound 0.316 µM
[22] = second compound 1 µM, first compound 1 µM
[23] = second compound 1 µM, first compound 3.16 µM
[24] = second compound 1 µM, first compound 10 µM
[25] = second compound 3.16 µM, first compound 0.0316 µM
[26] = second compound 3.16 µM, first compound 0.1 µM
[27] = second compound 3.16 µM, first compound 0.316 µM
[28] = second compound 3.16 µM, first compound 1 µM
[29] = second compound 3.16 µM, first compound 3.16 µM
[30] = second compound 3.16 µM, first compound 10 µM
[31] = second compound 10 µM, first compound 0.0316 µM
[32] = second compound 10 µM, first compound 0.1 µM
[33] = second compound 10 µM, first compound 0.316 µM
[34] = second compound 10 µM, first compound 1 µM
[35] = second compound 10 µM, first compound 3.16 µM
[36] = second compound 10 µM, first compound 10 µM
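Note: spheroids exposed to compounds for seven days.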
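Throughout, for viability, T/C: 100% = DMSO vehicle control viability.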

COc1cc2cc(C(=O)CCC(=O)O)sc2cc1OC + Cc1cccc(N(C)C(=O)C2C(O)CCN2c2nc(C)cc(C(F)(F)F)c2C#N)c1
IC50 (second compound 0.0316 µM): > 10 µM
IC50 (second compound 0.1 µM): > 10 µM
IC50 (second compound 0.316 µM): > 10 µM
IC50 (second compound 1 µM): > 10 µM
IC50 (second compound 3.16 µM): > 10 µM
IC50 (second compound 10 µM): > 10 µM
viability, T/C [1]: 106%
viability, T/C [2]: 112%
viability, T/C [3]: 101%
viability, T/C [4]: 106%
viability, T/C [5]: 109%
viability, T/C [6]: 104%
viability, T/C [7]: 112%
viability, T/C [8]: 107%
viability, T/C [9]: 102%
viability, T/C [10]: 95.8%
viability, T/C [11]: 115%
viability, T/C [12]: 89.4%
viability, T/C [13]: 119%
viability, T/C [14]: 107%
viability, T/C [15]: 113%
viability, T/C [16]: 97%
viability, T/C [17]: 107%
viability, T/C [18]: 95.1%
viability, T/C [19]: 116%
viability, T/C [20]: 103%
viability, T/C [21]: 107%
viability, T/C [22]: 107%
viability, T/C [23]: 103%
viability, T/C [24]: 105%
viability, T/C [25]: 106%
viability, T/C [26]: 106%
viability, T/C [27]: 103%
viability, T/C [28]: 108%
viability, T/C [29]: 113%
viability, T/C [30]: 108%
viability, T/C [31]: 107%
viability, T/C [32]: 112%
viability, T/C [33]: 117%
viability, T/C [34]: 100%
viability, T/C [35]: 122%
viability, T/C [36]: 109%

COc1ccc([C@@H](O)c2cc(-c3ncnc4cc(N5CCOCC5)ccc34)c(F)cc2Cl)nn1 + Cc1cccc(N(C)C(=O)C2C(O)CCN2c2nc(C)cc(C(F)(F)F)c2C#N)c1
IC50 (second compound 0.0316 µM): > 10 µM
IC50 (second compound 0.1 µM): > 10 µM
IC50 (second compound 0.316 µM): > 10 µM
IC50 (second compound 1 µM): > 10 µM
IC50 (second compound 3.16 µM): > 10 µM
IC50 (second compound 10 µM): > 10 µM
viability, T/C [1]: 104%
viability, T/C [2]: 115%
viability, T/C [3]: 108%
viability, T/C [4]: 103%
viability, T/C [5]: 78.3%
viability, T/C [6]: 62.4%
viability, T/C [7]: 106%
viability, T/C [8]: 106%
viability, T/C [9]: 89.1%
viability, T/C [10]: 110%
viability, T/C [11]: 72.2%
viability, T/C [12]: 75.1%
viability, T/C [13]: 110%
viability, T/C [14]: 90%
viability, T/C [15]: 97.6%
viability, T/C [16]: 93.1%
viability, T/C [17]: 102%
viability, T/C [18]: 62.2%
viability, T/C [19]: 111%
viability, T/C [20]: 80.1%
viability, T/C [21]: 97.7%
viability, T/C [22]: 83.2%
viability, T/C [23]: 103%
viability, T/C [24]: 53.1%
viability, T/C [25]: 122%
viability, T/C [26]: 98.9%
viability, T/C [27]: 108%
viability, T/C [28]: 87.8%
viability, T/C [29]: 101%
viability, T/C [30]: 68.5%
viability, T/C [31]: 87.9%
viability, T/C [32]: 87.6%
viability, T/C [33]: 109%
viability, T/C [34]: 76.6%
viability, T/C [35]: 64.3%
viability, T/C [36]: 54.3%
